# Experimental data reported in patent publication EP4806890A1, “CRYSTALLINE COMPOUND OR BASIC SALT THEREOF, PREPARATION METHOD THEREFOR, AND USE THEREOF” (Abbisko Therapeutics Co., Ltd., priority 2023, dated 2025).
# What was measured:
# PD-1/PD-L1 = PD-1/PD-L1 (Homo sapiens, UniProt Q9NZQ7); details: statement of the background, WO2019149183A1; cited from earlier work
# [1] = Later pharmaceutical research on the trifluoroacetate freeze-dried amorphous compound of WO2019149183A1 (solid-state properties); format: physicochemical
# T cells = details: statement of the background, WO2019149183A1; cited from earlier work
# [2] = Stability determination (thermal stability and photostability, HPLC purity, appearance, XRPD); format: physicochemical; details: for XRPD: crystalline form found
# [3] = Hygroscopic behavior test by dynamic vapor sorption (DVS); format: physicochemical; details: for hygroscopicity (in words): DVS, 25 °C
# Source text: The experimental method of characterizing the crystalline free form of the compound of formula (I) or the basic salt thereof using dynamic vapor sorption (DVS) is as follows: a small amount of the crystalline sample was placed in a precision sample tray that was compatible with the instrument; after the sample was loaded, the sample tray was placed into the instrument for analysis. In this patent, the instruments used for dynamic vapor sorption were all the DVS Intrinsic plus model, and the following experimental parameters were set: nitrogen was used as the carrier gas, a constant temperature of 25 °C was set, the rate of mass percentage change over a unit of time (dm/dt) = 0.002%/min was used as a criterion for determining if equilibrium is reached, and the program humidity change cycle was set to 50-95-0-95-50% RH; within the range of 0-90% RH, a change of 10% RH was taken as a step, and within the range of 90% RH-95% RH, a change of 5% RH was taken as a step.
# In the present invention, the hygroscopic weight increases (hygroscopic weight increase/weight before hygroscopy * 100%) of various crystalline forms under various relative humidity conditions were determined using the dynamic vapor sorption method, and the hygroscopicity of different crystalline compounds was evaluated.
# [4] = Solubility determination (equilibrium solubility, 24 hrs stirring at room temperature, HPLC); format: physicochemical; details: for Equilibrium solubility: target concentration 2000 µg/mL, 24 hrs; for pH24 hrs: pH of the filtrate after 24 hrs
# [5] = Aluminum foil light exposure control, 9.2 days
# [6] = Transparent light exposure, 9.2 days
# [7] = pH 4.7, 50 mM acetic acid buffer
# [8] = pH 6.8, 50 mM phosphoric acid buffer
# Sequence of PD-1/PD-L1 (Q9NZQ7 19-238 limits assumed): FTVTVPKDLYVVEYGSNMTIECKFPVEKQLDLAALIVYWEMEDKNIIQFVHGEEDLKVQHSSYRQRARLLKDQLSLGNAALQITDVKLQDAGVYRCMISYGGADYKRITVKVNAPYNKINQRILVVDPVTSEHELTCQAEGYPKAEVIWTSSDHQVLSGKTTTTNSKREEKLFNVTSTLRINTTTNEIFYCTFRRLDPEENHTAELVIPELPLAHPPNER
structure (smiles),measurement,setting,value
"Cc1c(NC(=O)c2cc(C3CC3)c(CN3CCCC[C@H]3C(=O)O)cn2)cccc1-c1cccc(NC(=O)c2cc(C3CC3)c(CN3CCCC[C@H]3C(=O)O)cn2)c1C [compound of formula (I), (2S,2'S)-1,1'-(((((2,2'-dimethyl-[1,1'-biphenyl]-3,3'-diyl)bis(azanediyl))bis(carbonyl))bis(4-cyclopropylpyridine-6,3-diyl))bis(methylene))bis(piperidine-2-carboxylic acid)]",inhibitory effect on the protein interaction of PD-1/PD-L1,PD-1/PD-L1,strong inhibitory effect
same,hygroscopicity (in words),[1],very hygroscopic
same,solubility (in words),[1],poor solubility
same,activation of T cells at the cellular level,T cells,enhance or restore the activation of T cells
"Cc1c(NC(=O)c2cc(C3CC3)c(CN3CCCC[C@H]3C(=O)O)cn2)cccc1-c1cccc(NC(=O)c2cc(C3CC3)c(CN3CCCC[C@H]3C(=O)O)cn2)c1C [free-form crystalline form F, (2S,2'S)-1,1'-(((((2,2'-dimethyl-[1,1'-biphenyl]-3,3'-diyl)bis(azanediyl))bis(carbonyl))bis(4-cyclopropylpyridine-6,3-diyl))bis(methylene))bis(piperidine-2-carboxylic acid)]",physical and chemical stability (in words),"[2]; 50 °C, 50 °C/75% RH (open), 80 °C for 7 days and photostress for 10 days",extremely high physical and chemical stability
same,Appearance,"[2]; 50 °C, 11 days",White powder
same,Purity (%),"[2]; 50 °C, 11 days",99.36%
same,Appearance,"[2]; 50 °C/75%RH, 11 days",White powder
same,Purity (%),"[2]; 50 °C/75%RH, 11 days",99.36%
same,Appearance,"[2]; 80 °C, 11 days",White powder
same,Purity (%),"[2]; 80 °C, 11 days",99.22%
same,Appearance,[2]; [5],White powder
same,Purity (%),[2]; [5],99.39%
same,Appearance,"[2]; Initial, 0 days",White powder
same,Purity (%),"[2]; Initial, 0 days",99.44%
same,Appearance,[2]; [6],White powder
same,Purity (%),[2]; [6],99.43%
same,XRPD,"[2]; 50 °C, 11 days",Free-form crystalline form F
same,XRPD,"[2]; 50 °C/75%RH, 11 days",Free-form crystalline form F
same,XRPD,"[2]; 80 °C, 11 days",Free-form crystalline form F
same,XRPD,[2]; [5],Free-form crystalline form F
same,XRPD,"[2]; Initial, 0 days",Free-form crystalline form F
same,XRPD,[2]; [6],Free-form crystalline form F
same,hygroscopicity (in words),[3],moderate hygroscopicity
same,hygroscopicity (in words),[3]; listed as crystalline form F,moderately hygroscopic
same,Hygroscopic weight increase (%),[3]; Relative humidity 0.0 % at 25 °C,0.00%
same,Hygroscopic weight increase (%),[3]; Relative humidity 10.0 % at 25 °C,0.18%
same,Hygroscopic weight increase (%),[3]; Relative humidity 20.0 % at 25 °C,0.38%
same,Hygroscopic weight increase (%),[3]; Relative humidity 30.0 % at 25 °C,0.60%
same,Hygroscopic weight increase (%),[3]; Relative humidity 40.0 % at 25 °C,0.84%
same,Hygroscopic weight increase (%),[3]; Relative humidity 50.0 % at 25 °C,1.14%
same,Hygroscopic weight increase (%),[3]; Relative humidity 60.0 % at 25 °C,1.54%
same,Hygroscopic weight increase (%),[3]; Relative humidity 70.0 % at 25 °C,2.04%
same,Hygroscopic weight increase (%),[3]; Relative humidity 80.0 % at 25 °C,2.55%
same,Hygroscopic weight increase (%),[3]; Relative humidity 90.0 % at 25 °C,3.28%
same,crystalline form changes after DVS testing,[3]; after DVS testing,no crystalline form changes
same,Equilibrium solubility,[4]; FaSSGF,117.15 µg/mL
same,Equilibrium solubility,[4]; FaSSIF,306.56 µg/mL
same,Equilibrium solubility,[4]; FeSSIF,1723.16 µg/mL
same,Equilibrium solubility,"[4]; Water, room temperature",69.47 µg/mL
same,Equilibrium solubility,"[4]; pH 1.2, HCl 100 mM",244.49 µg/mL
same,Equilibrium solubility,[4]; [7],67.33 µg/mL
same,Equilibrium solubility,[4]; [8],61.01 µg/mL
same,pH24 hrs,[4]; FaSSGF,1.58
same,pH24 hrs,[4]; FaSSIF,6.42
same,pH24 hrs,[4]; FeSSIF,4.99
same,pH24 hrs,[4]; Water,5.52
same,pH24 hrs,"[4]; pH 1.2, HCl 100 mM",1.15
same,pH24 hrs,[4]; [7],4.68
same,pH24 hrs,[4]; [8],6.93
same,solubility (in words),"[4]; various pH conditions, buffers and biological medium solutions",extremely significantly improved solubility
